Experimental data taken from patent US20030229113A1, “Keratinocyte growth inhibitors and hydroxamic acid derivatives” (priority 2003, published 2003).
Like-named read-outs stand apart in the source and are kept apart here.

Assays:
[1] = tested on: solubilizing enzyme of HB-EGF; experiment: Inhibition of TPA-stimulated release of HB-EGF from HT-1080 transfectant expressing HB-EGF/alkaline phosphatase fusion protein; assay type: cell-based, human; settings: HT-1080 HB-EGF-AP transfectant, TPA 60 nM for 60 min, AP activity in conditioned medium (OD405)
Description: Human fibrosarcoma HT-1080 stable transfectant expressing fusion protein of HB-EGF and human placental alkaline phosphatase (AP) were used for following experiments.
The cultured transfectant was treated with Trypsin-EDTA solution, and suspended in Minimum Essential Medium (without phenol red; supplemented with 10% heat-inactivated fetal calf serum; MEM) at the concentration of 1×10^5 cells/ml. Each 0.2 ml of the cell suspension was dispensed into individual wells of 96 well microplate, and incubated overnight in the CO2 incubator (37° C.). After the incubation, the conditioned medium was removed, and the wells were washed once with 0.2 ml of phosphate buffered saline. The cells were treated with 0.1 ml of compound solution [compound solutions in dimethylsulfoxide (DMSO) were diluted 100 times with MEM] for 30 min at 37° C. Then the compound solutions were removed, and cells were treated with 0.2 ml of TPA solution (120 μM) of stock solution was diluted to 60 nM with MEM) containing same concentration of the compound for 60 min at 37° C. The cells treated same procedure without compound were used as control.
After these treatments, each 0.1 ml of conditioned medium was transferred to individual wells of new 96 well microplate and incubated at 65° C. for 10 min to inactivate endogenous alkaline phosphatase. One hundred microliter of substrate solution (1 mg/ml of p-nitrophenyl phosphate in 0.01% magnesium chloride/1 M diethanolamine) for AP was added to each well and incubated for 120 min at room temperature in the dark. The OD405 of each well was measured with microplate reader. The IC50 values of the compounds were calculated from the concentration-inhibition curves.

[2] = tested on: epidermal hyperplasia induced by TPA; experiment: TPA-induced epidermal hyperplasia on dorsal skin of mice; assay type: in vivo, male BALB/c mice; settings: ED50; topical in acetone at 1 minute, 24 and 48 hours after TPA; epidermal thickness 72 hours after TPA
Description: After backs of male BALB/c mice were shaved, 20 micro 1 of TPA-acetone solution (50 μM) was applied to the dorsal skin surface in an area of ca. 1 cm^2. A volume of 20 micro 1 of test compound-acetone solution was applied to the same area a minute, 24 hours and 48 hours after TPA application (the treated group). In the non-treated group, acetone was applied instead of the test compound. In the control group, acetone was applied instead of TPA and the test compound. The mice were sacrificed, and the skin tissues treated with TPA or the test compound were excised 72 hours after TPA application. Then the tissues were fixed with 10% formalin and embedded in paraffin according to the conventional method. The vertical sections including the center of the TPA- or the test compound-treated area were prepared and they were stained by hematoxylin-eosin. The epidermal thickness was measured using an ocular microscope. The amount of the test compound required for achieving 50% inhibition against the mean epidermal thickness of the non-treated group (ED50) was calculated, wherein the mean epidermal thickness of the non-treated group was 100% and that of the control group was 0%.

[3] = tested on: re-epithelialization of skin wound; experiment: Re-epithelialization in mouse skin wound model; assay type: in vivo, male BALB/c mice; settings: 50% inhibition of re-epithelialization; applied to 6-mm wound once a day
Description: Wound healing model was prepared according to the method described by Tsuboi, et al. [J. Dermatol., 19, 673-675 (1992)]. Briefly, after backs of male BALB/c mice were shaved, two full-thickness round wounds were prepared in parallel to anterior-posterior axis on the back of each mouse using a punch biopsy instrument (6-mm diameter). After the operation, a test compound dissolved or suspended in 0.1M phosphate-buffered saline containing 1.5% sodium carboxymethylcellulose (vehicle) was applied to each wound in a volume of 50 μl/wound. The wounds were left open. From the following day, the compound was applied to each wound once a day for 7 days (the treated group). In the control group, vehicle solution only was applied in the same manner. One day after the last application, mice were sacrificed and skin tissues around the anterior wound were excised. The tissues were fixed with 10% formalin and embedded in paraffin according to the conventional method. The sections were made perpendicularly to the anterior-posterior axis. Keratinocytes in the specimen were stained with an anti-keratin antibody. Measurements of wound size and epidermal migration were performed by using an image-analyzing software. Re-epithelialization was calculated as follows; [formula]
The amount of the test compound required for achieving 50% inhibition against the mean re-epithelialization of the control group (ED50) was calculated.

Row | Structure (SMILES) | IC50 ([1]; read-out: IC50) [µM] | Amount of test compound required for 50% suppression of epidermal hyperplasia [2] | ED50 [3] | IC50 [1] [µM]
1 | COCCCOc1ccc(S(=O)(=O)N2Cc3nccnc3CC2C(=O)NO)cc1 (single isomer, unassigned; (+)) [the compound(14), (+)-N-Hydroxy-6-[4-(3-methoxypropoxy)benzenesulfonyl]-5,6,7,8-tetrahydropyrido[3,4-b]pyrazine-7-carboxamide] | 0.053 | 300 10^−6 g/cm^2 | 9.8 10^−6 g/0.3 cm^2 | –
2 | CCOc1ccc(S(=O)(=O)N2Cc3nccnc3CC2C(=O)NO)cc1 (single isomer, unassigned; (+)) [the compound(15), (+)-N-Hydroxy-6-(4-ethoxybenzenesulfonyl)-5,6,7,8-tetrahydropyrido[3,4-b]pyrazine-7-carboxamide] | 0.31 | 370 10^−6 g/cm^2 | 5.2 10^−6 g/0.3 cm^2 | –
3 | COc1ccc(S(=O)(=O)N2Cc3nccnc3CC2C(=O)NO)cc1 (single isomer, unassigned; (+)) [the compound(13), (+)-N-Hydroxy-6-(4-methoxybenzenesulfonyl)-5,6,7,8-tetrahydropyrido[3,4-b]pyrazine-7-carboxamide] | 0.35 | 350 10^−6 g/cm^2 | 4.5 10^−6 g/0.3 cm^2 | –
4 | CSCCCOc1ccc(S(=O)(=O)N2Cc3nccnc3CC2C(=O)NO)cc1 (single isomer, unassigned; (+)) [the compound(21), (+)-N-Hydroxy-6-[4-(3-methylthiopropoxy)benzenesulfonyl]-5,6,7,8-tetrahydropyrido[3,4-b]pyrazine-7-carboxamide] | – | 230 10^−6 g/cm^2 | 11.0 10^−6 g/0.3 cm^2 | 0.1

Continued, in another order:

Row | IC50 ([1]; read-out: IC50) [µM] | Structure (SMILES) | Amount of test compound required for 50% suppression of epidermal hyperplasia [2] | ED50 [3] | IC50 [1] [µM]
5 | 0.36 | COCCOc1ccc(S(=O)(=O)N2Cc3nccnc3CC2C(=O)NO)cc1 (single isomer, unassigned; (+)) [the compound(19), (+)-N-Hydroxy-6-[4-(2-methoxyethoxy)benzenesulfonyl]-5,6,7,8-tetrahydropyrido[3,4-b]pyrazine-7-carboxamide] | 200 10^−6 g/cm^2 | 16.6 10^−6 g/0.3 cm^2 | –
6 | 0.41 | O=C(NO)C1Cc2nccnc2CN1S(=O)(=O)c1ccc(Oc2ccccc2)cc1 (single isomer, unassigned; (+)) [the compound(20), (+)-N-Hydroxy-6-(4-phenoxybenzenesulfonyl)-5,6,7,8-tetrahydropyrido[3,4-b]pyrazine-7-carboxamide] | 27 10^−6 g/cm^2 | 9.7 10^−6 g/0.3 cm^2 | –
